# From patent publication US5356880A, “Glycyrrhetinic acid derivatives” (priority 1991, dated 1994)
# Read-outs that look alike come from different tables or passages of the source.
# Assays:
# influenza B virus = settings: cited from earlier work
# influenza A virus = settings: cited from earlier work
# AIDS virus (HIV) = settings: cited from earlier work
# GMK cells [1] = test: Cytotoxicity (HSV UV-238 strain test), microscopic
# HSV (UV-238 Strain) = test: Action on HSV (UV-238 strain), CPE inhibition, TCID50; assay type: cell-based; settings: read-out: Antiviral Activity (ΔTCID50); for log reduction at 1 µg/mL: 1 μg/ml; for log reduction at 5 µg/mL: 5 μg/ml; for log reduction at 25 µg/mL: 25 μg/ml
# HSV-1 (Miyama strain) [2] = test: In vitro antiviral action on cells infected with HSV-1 (Miyama strain), CPE inhibition, TCID50; assay type: cell-based, Herpes simplex virus type 1; settings: read-out: Antiviral Activity (ΔTCID50); for log reduction at 5 µg/mL: 5 μg/ml; for log reduction at 25 µg/mL: 25 μg/ml
# GMK cells [3] = system: GMK cells
# [4] = Acute toxicity testing, oral, mice (LD50, Litchfield-Willcoxon); settings: mouse, in vivo, ICR male mice, 7 days observation
# From the text: The compounds to be tested in the form of a 2% aqueous solution of Tween 80 were orally administrated to ICR male mice (weights: 24-30 g), five for each group.
# [5] = system: influenza viruses (A/PR/8 strain); test: microbe, parasite or virus in culture; assay type: cell-based, influenza virus A/PR/8; settings: unidentified influenza virus, PR/8, MDCK, read-out: Antiviral Activity (ΔTCID50)
# HSV-1 (KOS strain) = test: microbe, parasite or virus in culture; assay type: cell-based, Herpes simplex virus type 1; settings: Human alphaherpesvirus 1, Vero, read-out: Antiviral Activity (ΔTCID50)
# [6] = system: vaccinia viruses (D1E strain); test: microbe, parasite or virus in culture; assay type: cell-based; settings: Orthopoxvirus vaccinia, Vero, read-out: Antiviral Activity (ΔTCID50)
# HSV-2 (UW-268 strain) = test: microbe, parasite or virus in culture; assay type: cell-based, Herpes simplex virus type 2; settings: Human alphaherpesvirus 2, Vero, read-out: Antiviral Activity (ΔTCID50)
# [7] = system: influenza viruses (A/PR/8 strain); test: microbe, parasite or virus in culture; assay type: cell-based, influenza virus A/PR/8; settings: unidentified influenza virus, read-out: Antiviral Activity (ΔTCID50)
# HSV-1 (Miyama strain) [8] = test: In vivo antiviral action: prolongation of life of mice infected with HSV-1; set-up: species or system BALB/c male mice; settings: abdominal route, once a day, control 6.1 ± 0.6
# From the text: BALB/c male mice of three weeks old, 10 for each group, were abdominally seeded with an infectious amount, 10LD50, of HSV-1(Miyama strain). One hour later and over six days after the next day, once a day, Compound (5) referred to in Table 1 was continuously administrated to each animal via an abdominal route.
# herpes simplex virus = test: Antiviral activity, general statement
# [9] = Safety / cytotoxicity, general statement
# [10] = Human alphaherpesvirus 1, 1 μg/ml, GMK cells
# [11] = Human alphaherpesvirus 1, GMK cells
Structure (SMILES),log reduction at 1 µg/mL (HSV (UV-238 Strain)),log reduction at 5 µg/mL (HSV (UV-238 Strain)),log reduction at 25 µg/mL (HSV (UV-238 Strain)),log reduction at 1 µg/mL (HSV-1 (Miyama strain) [2]; [10]),log reduction at 5 µg/mL (HSV-1 (Miyama strain) [2]; [11]),log reduction at 25 µg/mL (HSV-1 (Miyama strain) [2]; [11]),magnitude of cytotoxicity (GMK cells [3]; 1 μg/ml),magnitude of cytotoxicity (GMK cells [3]; 5 μg/ml),further results
CC(N)C12CC3CC(CC(C3)C1)C2 (racemic) [remantadine],,,,,,,,,efficacy against influenza B virus (influenza B virus): not against influenza B virus; efficacy against influenza A virus (influenza A virus): efficacious against influenza A virus
Cc1cn([C@H]2C[C@H](N=[N+]=[N-])[C@@H](CO)O2)c(=O)[nH]c1=O [AZT],,,,,,,,,"effect on AIDS (AIDS virus (HIV)): delay the development of AIDS, but cannot accelerate healing"
NC12CC3CC(CC(C3)C1)C2 [Amantadine],,,,,,,,,efficacy against influenza B virus (influenza B virus): not against influenza B virus; efficacy against influenza A virus (influenza A virus): efficacious against influenza A virus
"Nc1ncnc2c1ncn2[C@@H]1O[C@H](CO)[C@@H](O)[C@@H]1O [Ara-a, reference compound]",1.1,1.7,2.6,1.2,1.5,2.5,-,,magnitude of cytotoxicity (GMK cells [1]; 1 μg/ml): -
"CC1(C)[C@@H](OC(=O)CCC(=O)O)CC[C@]2(C)[C@H]3C(=O)C=C4[C@@H]5C[C@@](C)(C(=O)O)CC[C@]5(C)CC[C@@]4(C)[C@]3(C)CC[C@@H]12 [Carbenoxolone, reference compound]",0.2,0.2,2.2,0.2,0.3,2.4,,,
"COc1ccccc1N1CCN(C(=O)[C@@]2(C)CC[C@]3(C)CC[C@]4(C)C(=CC[C@@H]5[C@@]6(C)CC[C@H](O[C@@H]7O[C@H](CO)[C@@H](O)[C@H](O)[C@H]7O)C(C)(C)[C@@H]6CC[C@]54C)[C@@H]3C2)CC1 [Comp. Ex. 25, 1-(3β-(β-D-glucopyranosyloxy)-18β-olean-12-en-30-oyl)-4-(2-methoxyphenyl)piperazine]",,,,,> 3,> 3.56,-,-,"LD50 at 168 h [4]: > 1000 mg/kg; log reduction at 1 µg/mL [5]: 1.31; log reduction at 5 µg/mL [5]: 1.86; log reduction at 25 µg/mL [5]: 2.22; log reduction at 1 µg/mL (HSV-1 (KOS strain)): 2.04; log reduction at 5 µg/mL (HSV-1 (KOS strain)): > 3.19; log reduction at 25 µg/mL (HSV-1 (KOS strain)): > 3.31; log reduction at 1 µg/mL (HSV-1 (Miyama strain) [2]; Human alphaherpesvirus 1, GMK): 1.86; magnitude of cytotoxicity (GMK cells [3]; 25 μg/ml): ±; log reduction at 1 µg/mL [6]: 1.7; log reduction at 5 µg/mL [6]: 2.67; log reduction at 25 µg/mL [6]: 2.53; log reduction at 1 µg/mL (HSV-2 (UW-268 strain)): 1.85; log reduction at 5 µg/mL (HSV-2 (UW-268 strain)): 2.92; log reduction at 25 µg/mL (HSV-2 (UW-268 strain)): > 3.3"
O=c1[nH]cnc2c1ncn2[C@H]1CC[C@@H](CO)O1 [DDI],,,,,,,,,"effect on AIDS (AIDS virus (HIV)): delay the development of AIDS, but cannot accelerate healing"
"NC(=O)c1ncn([C@@H]2O[C@H](CO)[C@@H](O)[C@H]2O)n1 [Ribavirin, reference compound]",,,,,,,,,"magnitude of cytotoxicity (MDCK cells; 1 μg/ml): -; magnitude of cytotoxicity (MDCK cells; 5 μg/ml): -; magnitude of cytotoxicity (MDCK cells; 20 μg/ml): -; log reduction at 1 µg/mL ([7]; PR/8, 1 μg/ml, MDCK cells): 0.8; log reduction at 5 µg/mL ([7]; PR/8, 5 μg/ml, MDCK cells): 1.8; log reduction at 20 µg/mL ([7]; PR/8, 20 μg/ml, MDCK cells): 3.2"
"COc1ccccc1N1CCN(C(=O)[C@@]2(C)CC[C@]3(C)CC[C@]4(C)C(=CC[C@@H]5[C@@]6(C)CC[C@H](OC(=O)/C=C\C(=O)O)C(C)(C)[C@@H]6CC[C@]54C)[C@@H]3C2)CC1 [Table 1, Comp. (5), 1-[3β-(3-carboxy-cis-propenoyloxy)-18β-olean-12-en-30-oyl]-4-(2-methoxyphenyl)piperazine]",1.3,2.2,2.8,1,2.1,3.1,-,-,"magnitude of cytotoxicity (GMK cells [1]; 1 μg/ml): -; magnitude of cytotoxicity (GMK cells [1]; 5 μg/ml): -; magnitude of cytotoxicity (GMK cells [1]; 25 μg/ml): -; magnitude of cytotoxicity (MDCK cells): -; Mean Survival Days (average ± standard error) (HSV-1 (Miyama strain) [8]; 5 mg/Kg): 7.9 ± 1.1 days; Mean Survival Days (average ± standard error) (HSV-1 (Miyama strain) [8]; 10 mg/Kg, p < 0.05 (t-Test)): 8.6 ± 0.7 days; Mean Survival Days (average ± standard error) (HSV-1 (Miyama strain) [8]; 20 mg/Kg, p < 0.001 (t-Test)): 11.2 ± 1.1 days; log reduction at 1 µg/mL ([7]; PR/8, MDCK): 0.8; log reduction at 5 µg/mL ([7]; PR/8, MDCK): 1.2; log reduction at 20 µg/mL ([7]; PR/8, MDCK): 2.1; magnitude of cytotoxicity (GMK cells [3]; 25 μg/ml): -"
"COc1ccccc1N1CCN(C(=O)[C@@]2(C)CC[C@]3(C)CC[C@]4(C)C(=CC[C@@H]5[C@@]6(C)CC[C@H](O)C(C)(C)[C@@H]6CC[C@]54C)[C@@H]3C2)CC1 [Table 1, Comp. (9), 1-(3β-hydroxy-18β-olean-12-en-30-oyl)-4-(2-methoxyphenyl) piperazine]",0.7,1.3,2.5,1.3,1.2,,-,,"magnitude of cytotoxicity (GMK cells [1]; 1 μg/ml): -; log reduction at 1 µg/mL ([7]; PR/8, MDCK): 0.5; log reduction at 5 µg/mL ([7]; PR/8, MDCK): 1; log reduction at 20 µg/mL ([7]; PR/8, MDCK): 1.3"
"CC(C)=CCCC(C)=CCCC(C)=CCN1CCN(C(=O)[C@@]2(C)CC[C@]3(C)CC[C@]4(C)C(=CC[C@@H]5[C@@]6(C)CC[C@H](OC(=O)/C=C\C(=O)O)C(C)(C)[C@@H]6CC[C@]54C)[C@@H]3C2)CC1 [Table 1, Comp. (10)]",,,,0.7,2,1.9,-,,
"COc1ccccc1N1CCN(C(=O)[C@@]2(C)CC[C@]3(C)CC[C@]4(C)C(=CC[C@@H]5[C@@]6(C)CC[C@H](OC(=O)CCC(=O)O)C(C)(C)[C@@H]6CC[C@]54C)[C@@H]3C2)CC1 [Table 1, Comp. (13), 1-[3β-(3-carboxypropanoyloxy)-18β-olean-12-en-30-oyl]-4-(2-methoxyphenyl)piperazine]",0.9,1.4,2.5,0.8,2.6,2.5,-,-,"magnitude of cytotoxicity (GMK cells [1]; 1 μg/ml): -; magnitude of cytotoxicity (GMK cells [1]; 5 μg/ml): -; antiviral activity (herpes simplex virus): a particularly high antiviral activity; log reduction at 1 µg/mL ([7]; PR/8, MDCK): 0.4; log reduction at 5 µg/mL ([7]; PR/8, MDCK): 0.6; log reduction at 20 µg/mL ([7]; PR/8, MDCK): 1.5; safety / cytotoxic action [9]: of greatly safety"
"CC1(C)[C@@H](OCC(=O)O)CC[C@]2(C)[C@H]3CC=C4[C@@H]5C[C@@](C)(C(=O)O)CC[C@]5(C)CC[C@@]4(C)[C@]3(C)CC[C@@H]12 [Table 1, Comp. (15), disodium-3β-carboxymethoxy-18β-olean-12-en-30-oate]",,,,0,0.3,1,-,-,
"CC1(C)[C@@H](OCCC(=O)O)CC[C@]2(C)[C@H]3CC=C4[C@@H]5C[C@@](C)(C(=O)O)CC[C@]5(C)CC[C@@]4(C)[C@]3(C)CC[C@@H]12 [Table 1, Comp. (18), disodium-3β-(2-carboxyethoxy)-18β-olean-12-en-30-oate]",,,,0.7,1.6,1.2,-,-,
